# Experimental data as given in patent US7709242B2, “L-tyrosine producing bacterium and a method for producing L-tyrosine” (Ajinomoto Co., Inc., priority 2004, dated 2010).
# How the values were obtained:
# [1] = biological target: T1, wild-type PDH (prephenate dehydrogenase) (Escherichia coli, UniProt P07023); assay: PDH activity in crude enzyme solution at L-tyrosine concentrations, wild-type PDH; assay type: biochemical; details: in the presence of 100 μM L-tyrosine; strain carrying wild-type PDH
# T1 construct: made in house; host or cells: Escherichia coli (crude enzyme solution of sonicated cells)
# Text: Such mutant PDH can be obtained by introducing amino acid substitutions into wild-type PDHs and selecting a PDH which is not subject to feedback inhibition by L-tyrosine due to the amino acid substitution-introduced PDHs. Specifically, nucleotide substitutions causing amino acid substitutions are introduced into a DNA encoding PDH (e.g., SEQ ID NO: 1) by the use of, for example, site-directed mutagenesis using PCR or the like, and an Escherichia bacterium, preferably an Escherichia bacterium in which a wild-type PDH gene is disrupted is transformed with the mutated DNA. The PDH activity of the bacterium is then measured in the presence and absence of L-tyrosine, and a strain in which PDH is resistant to feedback inhibition by L-tyrosine is selected. PDH activity can be measured according to the method described in Biochemistry. 1990 Nov. 6; 29(44): 10245-54.
# W3110 ΔtyrR,tyrA/pSTVtyrA-1, -2, -5, -10, and -24 strains were cultured at 37° C. for 15 hours in a LB medium, respectively and each culture solution was centrifuged to collect bacterial cells. […] Then, the PDH activity was measured according to the method described in Biochemistry. […] That is, the enzyme reaction was performed at 30° C. for 10 minutes in 50 mM Tris-HCl (pH 7.5) containing 0.25 mM prephenate, 1 mM EDTA, 1 mM DTT, and 2 mM NAD, and the generated NADH was measured at an absorption wavelength of 340 nm. […]
# [2] = biological target: T2, PDH of W3110 ΔtyrR,tyrA/pSTVtyrA-1 strain (tyrA(mut), P100S/T260I) (Escherichia coli, UniProt P07023, P100S/T260I); assay: PDH activity in crude enzyme solution at L-tyrosine concentrations, pSTVtyrA-1 strain; assay type: biochemical; details: in the presence of 800 μM L-tyrosine
# T2 construct: The resulting mutated fragment was then ligated to pSTV28; made in house; host or cells: Escherichia coli W3110 ΔtyrR,tyrA (endogenous tyrA disrupted), plasmid pSTV28; crude enzyme solution
# Method: (§1) W3110 ΔtyrR,tyrA/pSTVtyrA-1, -2, -5, -10, and -24 strains were cultured at 37° C. for 15 hours in a LB medium, respectively and each culture solution was centrifuged to collect bacterial cells. Next, after the bacterial cells were washed twice with 50 mM Tris-HCl (pH 7.5) and suspended in 50 mM Tris-HCl (pH 7.5) containing 20% glycerol on ice, a crude enzyme solution was prepared by repeating 30 second-ultrasonication 80 times. Then, the PDH activity was measured according to the method described in Biochemistry. 1990 Nov. 6; 29(44): 10245-54. That is, the enzyme reaction was performed at 30° C. for 10 minutes in 50 mM Tris-HCl (pH 7.5) containing 0.25 mM prephenate, 1 mM EDTA, 1 mM DTT, and 2 mM NAD, and the generated NADH was measured at an absorption wavelength of 340 nm. A protein assay was carried out by the Bradford method. […] Hereinafter, this tyrA gene inserted into pSTVtyrA-1 is referred to as tyrA(mut).
# The nucleotide sequence of the tyrA(mut) gene was determined according to a standard method. In this mutant, proline at position 100 and threonine at position 260 were replaced by serine and isoleucine, respectively. […] The obtained strains were cultured and L-tyrosine production was evaluated. […]
# [3] = system: PDH of strains carrying pSTVtyrA-2, -5, -10, and -24; assay: PDH activity in crude enzyme solution at L-tyrosine concentrations, pSTVtyrA-2, -5, -10, -24 strains; assay type: biochemical, Escherichia coli; details: in the presence of 100 μM L-tyrosine
# Method: as §1
# [4] = biological target: T3, PDH containing the T260I mutation (Escherichia coli, UniProt P07023, T260I); assay: PDH activity in crude enzyme solution at tyrosine concentrations, T260I mutant; assay type: biochemical; details: in the presence of 800 μM tyrosine; strain harboring PDH with T260I
# T3 construct: EcoRI-CpoI fragment containing no mutation excised from pSTVtyrA(W) was connected to the vector fragment of EcoRI-CpoI-digested pSTVtyrA(mut); made in house; host or cells: Escherichia coli W3110 ΔtyrR,tyrA, plasmid pSTVtyrA(T260I); crude enzyme solution
# Method: (§2) A strain containing mutant 7 (257/265), a strain containing mutant 6 (254/269), both shown in Table 3, and a strain containing the T260I mutation shown in Table 2 were cultured at 37° C. for 15 hours in LB medium, and after the culture, the resulting culture was centrifuged to collect bacterial cells. Then, after the bacterial cells were washed twice with 50 mM Tris-HCl (pH 7.5) and suspended in 50 mM Tris-HCl (pH 7.5) containing 20% glycerol on ice, a crude enzyme solution was prepared by repeating 30 second-ultrasonication 80 times. PDH activity was measured according to the method described in Biochemistry. 1990 Nov. 6; 29(44): 10245-54. That is, a reaction was carried out at 30° C. for 10 minutes in 50 mM Tris-HCl (pH 7.5) containing 0.25 mM prephenate, 1 mM EDTA, 1 mM DTT, and 2 mM NAD^+, and NADH was measured at an absorption wavelength of 340 nm. A protein assay was carried out by the Bradford method. […] However, the PDH activity of the strain harboring the PDH with the 257/265 mutation could not be measured even though the L-tyrosine yield was high.
# [5] = biological target: T4, PDH containing the 254/269 mutations (mutant 6, A254G/E269Y) (Escherichia coli, UniProt P07023, A254G/E269Y); assay: PDH activity in crude enzyme solution at tyrosine concentrations, 254/269 mutant; assay type: biochemical; details: in the presence of 800 μM tyrosine; strain harboring PDH with 254/269 mutations
# T4 construct: amplify a full length fragment of the tyrA gene which has mutations introduced; made in house; host or cells: Escherichia coli W3110 ΔtyrR,tyrA, plasmid pSTV28 (SmaI site); crude enzyme solution
# Method: as §2
# [6] = biological target: PDH (encoded by the tyrA gene) (Escherichia coli, UniProt P07023); details: Biochemistry. 1985 Feb. 26; 24(5): 1116; cited from earlier work
# Sequence of PDH (encoded by the tyrA gene) (P07023 whole entry): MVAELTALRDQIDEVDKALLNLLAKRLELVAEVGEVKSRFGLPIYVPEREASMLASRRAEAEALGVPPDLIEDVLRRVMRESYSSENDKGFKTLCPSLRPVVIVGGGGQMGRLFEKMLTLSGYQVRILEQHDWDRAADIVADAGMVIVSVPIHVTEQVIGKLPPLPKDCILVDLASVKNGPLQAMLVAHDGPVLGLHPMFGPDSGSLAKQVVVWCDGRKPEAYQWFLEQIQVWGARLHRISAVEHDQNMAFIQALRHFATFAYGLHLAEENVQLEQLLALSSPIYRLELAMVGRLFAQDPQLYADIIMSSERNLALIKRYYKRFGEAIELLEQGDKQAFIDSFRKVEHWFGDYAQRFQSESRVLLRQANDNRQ
# T2 sequence (P07023 whole entry P100S/T260I, the tested form may be a part): as the sequence (P07023 whole entry) above, with P100S, T260I counted along it
# T1 sequence (P07023 whole entry): as the sequence (P07023 whole entry) above
# T3 sequence (P07023 whole entry T260I, the tested form may be a part): as the sequence (P07023 whole entry) above, with T260I counted along it
# T4 sequence (P07023 whole entry A254G/E269Y, the tested form may be a part): as the sequence (P07023 whole entry) above, with A254G, E269Y counted along it
structure (smiles),measurement,setting,value
N[C@@H](Cc1ccc(O)cc1)C(=O)O [L-tyrosine],inhibition of PDH activity,[1],strongly inhibited
same,inhibition of PDH activity,[2],almost no inhibition
same,inhibition of PDH activity,[3],strongly inhibited
same,inhibition of PDH activity,[4],almost no inhibition
same,inhibition of PDH activity,[5],almost no inhibition
same,concentration of L-tyrosine at which PDH is inhibited (as low as),[6],300 µM
